Test results reported in the supplement of paper PMC10307832.

Assays:
Experiment in all cases: relative viability (nuclei count vs DMSO), 5 days (fraction); higher = more cells survive
[1] = compound: CC1=C(C(=NN1)C)CC2=C(C3=C(S2)N(C(=O)N(C3=O)C)CC(C)C)C(=O)N4C[C@@H](CO4)O + Nc1nc2[nH]cc(CCc3ccc(C(=O)N[C@@H](CCC(=O)O)C(=O)O)cc3)c2c(=O)[nH]1 [Pemetrexed] (partner 0.2 µM)
Summary of the method: (§1)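 Lung cancer cell lines, seeded in 1536-well plates, were treated the following day by pin tool with a single drug or with five library-drug doses (not always all listed) in √10 steps on top of a fixed anchor-drug dose. Cells were fixed and nuclei stained in one step after 5 days, and nuclei were counted. Relative viability is the nuclei count for treated wells divided by that for vehicle wells, reported as medians of duplicate plates.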

[2] = compound: CC1=C(C(=NN1)C)CC2=C(C3=C(S2)N(C(=O)N(C3=O)C)CC(C)C)C(=O)N4C[C@@H](CO4)O + Cc1nc(NC(=O)N2CCC[C@H]2C(N)=O)sc1-c1ccnc(C(C)(C)C(F)(F)F)c1 [Alpelisib] (partner 2 µM)
Summary of the method: as §1

[3] = compound: Cc1ccccc1C(C(=O)NC1CCCCC1)N(C(=O)Cn1ccnc1C)c1cccc(F)c1 [IDH-C35] + Nc1ncn([C@H]2C[C@H](O)[C@@H](CO)O2)c(=O)n1 [Decitabine] (partner 2 µM)
Summary of the method: as §1

[4] = compound: Cc1ccccc1C(C(=O)NC1CCCCC1)N(C(=O)Cn1ccnc1C)c1cccc(F)c1 [IDH-C35] + CS(=O)(=O)CCNCc1ccc(-c2ccc3ncnc(Nc4ccc(OCc5cccc(F)c5)c(Cl)c4)c3c2)o1 [Lapatinib] (partner 2 µM)
Summary of the method: as §1

UMC-11 was tested, and the relative viability ([1]; first compound 0.0025 µM) was 0.791, the relative viability ([1]; first compound 0.007906 µM) was 0.86 and the relative viability ([1]; first compound 0.025 µM) was 0.779. It also gave a relative viability ([1]; first compound 0.07906 µM) of 0.761, a relative viability ([1]; first compound 0.25 µM) of 0.789 and a relative viability ([2]; first compound 0.0025 µM) of 1.03. For the same cell line, the relative viability ([2]; first compound 0.007906 µM) was 0.897, the relative viability ([2]; first compound 0.025 µM) was 0.75 and the relative viability ([2]; first compound 0.07906 µM) was 0.986. It also gave a relative viability ([2]; first compound 0.25 µM) of 0.977, a relative viability ([3]; first compound 0.08 µM) of 0.572 and a relative viability ([3]; first compound 0.253 µM) of 0.724. It also gave a relative viability ([3]; first compound 0.8 µM) of 0.576, a relative viability ([3]; first compound 2.53 µM) of 0.609 and a relative viability ([3]; first compound 8 µM) of 0.619. The relative viability ([4]; first compound 0.08 µM) was 1.01, the relative viability ([4]; first compound 0.253 µM) was 0.976 and the relative viability ([4]; first compound 0.8 µM) was 0.98. The relative viability ([4]; first compound 2.53 µM) was 0.96 and the relative viability ([4]; first compound 8 µM) was 1.09.
